According to PubChem BioAssay AID2400 (Broad Institute, 2010):
Several values for one entry are separate records, joined by “and”; a condition that tells them apart may be missing. Identical values can stand only once. Activity calls are given as the source filed them.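 How the source made its calls: active means fitted EC50 at or below ten times the top tested concentration; inconclusive means flat fit with activity between 30% and 70%, or an unusable fit; inactive means EC50 beyond ten times the top tested concentration.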

System: S. cerevisiae GRE-beta-galactosidase reporter, luminescence, 75 min
Test: steroid-induced GRE reporter decrease in yeast – S. cerevisiae, luminescence, Hsp90 inhibitor project, dose response (AID 2400)

Structure (SMILES) | EC50
CC1CCC(C(C)C)C(OC(=O)Cn2c(-c3ccc(Br)cc3)[n+](C)c3ccccc32)C1 (configuration not stated) | > 16 µM (inactive)
NC(=NCCCCCCN=C(N)/N=C(\N)Nc1ccc(Cl)cc1)/N=C(\N)Nc1ccc(Cl)cc1 | > 16 µM (inactive) and > 15 µM (inactive)
